Source: patent US20160176859A1, “High-Throughput Assay for Identifying Small Molecules that Modulate AMP-activated Protein Kinase (AMPK)” (North Carolina Central University, priority 2013, published 2016)
“Also recorded” adds a separate entry of the source. Like-named read-outs stand apart in the source and are kept apart here.

How the values were obtained:
[1] = molecular target: T1, full-length AMPK (rat His-α1, β1, γ1) (Rattus norvegicus, UniProt P54645+P80385); assay: MANT-ADP fluorescence displacement (binding) assay, full-length AMPK; settings: for displacement of MANT-ADP: full-length AMPK compared with regulatory fragment: compared in parallel; for IC50: full-length AMPK; for inhibition of the protein-bound signal of MANT-ADP in the triplicate similarity screen: final concentration 45 μM
T1 construct: Tricistronic vectors encoding full-length AMPK (rat His-α1, β1, γ1); made in house; host or cells: Rosetta cells (E. coli), tricistronic vector, gift of Dr. Uwe Schlattner
Description: (§1) Except where otherwise noted, assays were performed with the following conditions: 0.5 μM full-length AMPK (130 kDa) or 0.5 μM regulatory fragment (66.7 kDa), 0.1 μM MANT-ADP, 10 mM Tris-HCl (pH 8), 0.45% DMSO (vehicle and negative control), and 5 μM ADP (positive control). Automated assays were assembled in two steps. First, a NanoQuot (BioTek) was used to dispense 11 μL of master mix (protein, MANT-ADP, and Tris-HCl) per well in black, low volume 384-well plates (Corning-3676). Next, a Biomek NX workstation (Beckman-Coulter, Brea, Calif.) equipped with pintools (VP Scientific, San Diego Calif.) was used to transfer 50 nL of controls (columns 1, 2, 23, and 24) and small molecules (4.5 μM final). Controls and library molecules were transferred from Axygen 384-well rigid PCR plates (Cat no. 321-67-051) at 221× concentration for single-concentration screening. Plates were shaken for 10 minutes prior to reading.
(§2) Fluorescence emission spectra of MANT-ADP were collected using a PerkinElmer EnSpire plate reader with an excitation wavelength of 360 nm. Background fluorescence from protein was subtracted from the raw data prior to plotting MANT-ADP's fluorescence in the presence of protein. Fluorescence detection for assay development and screening was performed on either a BMG Pherastar Plus (360/10 excitation and 460/10 emission filters) or a PerkinElmer EnVision (355/40 excitation and 460/25 emission filters), depending on equipment availability. Relative fluorescence units (RFUs) were recorded at room temperature.
(§3) ScreenAble (ScreenAble Solutions, Chapel Hill, N.C.) high-throughput screening software was utilized for merging screening data and chemical structure, for statistical design of experiments, and hit selection. GraphPad Prism was used for non-linear regression analysis of dose response data.
(§4) Binding assays. Except where otherwise noted, assay assembly and data analysis were completed according to published methods. Binding assays were manually assembled, with the exception of the similarity screen. Automated assembly of the similarity screen was completed according to published methods. Analogs were cherry-picked from a 10 mM Asinex small molecule library and a 0.5 mM kinase focused library, which has been described previously (4). Molecules were screened at a final concentration of 45 and 2.3 μM, respectively.

[2] = molecular target: T2, AMPK regulatory fragment (rat His-α1, 396-548; human β2, 187-272; rat γ1) (Rattus norvegicus, UniProt P80385); assay: MANT-ADP fluorescence displacement (binding) assay, AMPK regulatory fragment; settings: MANT-ADP with no protein = 100% inhibition, read-out: IC50, inhibition of the increase in MANT-ADP fluorescence
T2 construct: rat His-α1, 396-548; human β2, 187-272; rat γ1; made in house; host or cells: Rosetta cells (E. coli), tricistronic vector, gift of Dr. Steve Gamblin
Description: as §1, §2, §3, §4

[3] = molecular target: T3, full-length His-AMPK (Rattus norvegicus, UniProt P54645+P80385); assay: Isothermal titration calorimetry; format: binding; settings: both sites; 5 mM phosphate buffer (pH 7.4), room temperature; n=1; read-out: calculated dissociation constants
T3 construct: Tricistronic vectors encoding full-length AMPK (rat His-α1, β1, γ1); made in house; host or cells: Rosetta cells (E. coli), tricistronic vector, gift of Dr. Uwe Schlattner
Description: ITC. A MicroCal Auto-iTC200 system (GE Healthcare, Pittsburgh, Pa.) was used to study binding interactions between ADP and full-length His-AMPK at room temperature in the presence of 5 mM phosphate buffer (pH 7.4). To decrease the ionic strength of the buffer, full-length AMPK frozen in 50 mM phosphate buffer was thawed, diluted in 5 mM phosphate buffer (pH 7.4) and then concentrated via centrifugal filtration. At the start of the ITC experiment, the concentrations of His-AMPK (in the sample cell) and ADP (in the syringe) were 70 μM and 1.4 mM, respectively.

[4] = molecular target: T4, purified p-AMPK (Rattus norvegicus, UniProt P54645+P80385); assay: Kinase assay with purified p-AMPK and GST-ACC peptide; format: biochemical
T4 construct: Full-length AMPK intended for use in phosphatase and kinase assays was purified, mixed with GST-CaMKKβ; made in house; host or cells: Rosetta cells (E. coli); phosphorylated in vitro with GST-CaMKKβ, which was then removed on glutathione resin
Description: Kinase assays. Assay conditions were adapted from published methods (17). The final assay buffer was comprised of 40 mM Hepes (pH 7.4) 5 mM MgCl2, 200 μM ATP, 75 mM NaCl, 0.01% Triton X-100, 1 mM DTT, and 0.45% DMSO (vehicle). Because some analogs had poor solubility at high concentrations, all analogs and controls were diluted in assay buffer and centrifuged (1 min, 5000 rpm, 4° C.) to remove insoluble matter. GST-ACC peptide and p-AMPK were thawed, diluted in assay buffer, and then added to the supernatant at final concentrations of 900 and 0.1 ng/μL, respectively. Kinase assays were assembled on ice; reactions were allowed to proceed for 30 minutes at room temperature. Reactions were stopped by the addition of loading buffer and 48 mM DTT followed promptly by freezing at −20° C.
(§5) Western analyses. Protein samples were boiled for 15 minutes in loading buffer and DTT prior to SDS-PAGE. Blots for protein-based assays were sequentially incubated with the following: 5% BSA in 1× TBS (1 hr, 22° C.), 1:1000 rabbit anti-human p-AMPK-α antibody or p-ACC antibody (2 hr, 22° C.), and 1:10,000 donkey anti-rabbit secondary antibody (1 hr, 22° C.). Blots for phosphatase assays were probed a second time using 1:100 mouse anti-human total AMPK antibody (overnight, 4° C.; from UNC Antibody Core Facility) followed by 1:10,000 donkey anti-mouse secondary antibody (1 hr, 22° C.). Blots for clarified cell lysates were sequentially probed for p-AMPK (1:500 dilution, overnight at 4° C. or 4 hours at 22° C.), total ACC (1:1000 dilution, overnight at 4° C. or 4 hours at 22° C.), and tubulin (1:10,000 dilution, 1 hr, 22° C.); a parallel set of blots were probed for p-ACC (1:500 dilution, overnight at 4° C. or 4 hours at 22° C.), total AMPK (1:1000 dilution, overnight at 4° C. or 4 hours at 22° C.), and tubulin (1:10,000 dilution, 1 hr, 22° C.). Because phosphorylated and total protein were imaged on separate membranes, the signals were normalized to the internal tubulin signal prior to calculating the ratio of phosphorylated to total protein. Scanning and imaging were completed according to published methods.

[5] = molecular target: T5, p-AMPK in the presence of PP2C (Rattus norvegicus, UniProt P54645+P80385); assay: Phosphatase assay: protection of p-AMPK from dephosphorylation by PP2C; format: biochemical; settings: p-AMPK/total AMPK ratio normalized to no-PP2C control
T5 construct: Full-length AMPK intended for use in phosphatase and kinase assays was purified, mixed with GST-CaMKKβ; made in house; host or cells: Rosetta cells (E. coli); phosphorylated in vitro with GST-CaMKKβ, which was then removed
Description: Phosphatase assays. Assay conditions were adapted from published methods (18). In short, the final assay buffer was compromised of 50 mM Tris (pH 7.5), […], 0.01% Triton X-100, 1 mM DTT, and 0.45% DMSO (vehicle). Because some analogs had poor solubility at high concentrations, all analogs and controls were diluted in assay buffer and centrifuged (1 min, 5000 rpm, 4° C.) to remove insoluble matter. PP2C and p-AMPK were added to the supernatant at final concentrations of 2 and 3 ng/μL, respectively. Phosphatase reactions were allowed to proceed for 30 minutes at 37° C. Reactions were stopped by the addition of loading buffer and 48 mM DTT followed promptly by freezing at −20° C.
Western analyses. Protein samples were boiled for 15 minutes in loading buffer and DTT prior to SDS-PAGE. Blots for protein-based assays were sequentially incubated with the following: 5% BSA in 1× TBS (1 hr, 22° C.), 1:1000 rabbit anti-human p-AMPK-α antibody or p-ACC antibody (2 hr, 22° C.), and 1:10,000 donkey anti-rabbit secondary antibody (1 hr, 22° C.). Blots for phosphatase assays were probed a second time using 1:100 mouse anti-human total AMPK antibody (overnight, 4° C.; from UNC Antibody Core Facility) followed by 1:10,000 donkey anti-mouse secondary antibody (1 hr, 22° C.). […]

[6] = system: p-ACC levels in HEK cells; assay: Cell-intact assay, p-ACC levels in HEK cells; format: cell-based, human; settings: for p-ACC levels (substrate phosphorylation), pre-conditioned HEK cells: serum starvation followed by 10% serum, 1 hour
Description: (§6) Cell-intact assays. HEK cells were grown in DMEM with 10% FBS and 1% penicillin/streptomycin at 37° C. A subset of plates was serum-starved for 5 hours on the day of the experiment. After 5 hours of serum-starvation, cells were treated with either controls (0.2% DMSO, A-769662, or Compound C) or small molecules in the absence of serum for an additional hour prior to lysis. Another subset of plates was serum-starved for 6 hours and then treated with either controls or small molecules for 1 hour in the presence of 10% FBS. A time course of both AMPK and ACC phosphorylation in HEK cells during serum starvation has already been published (Pirkmajer S, Chibalin A V. Serum starvation: caveat emptor. American journal of physiology Cell physiology. 2011 August; 301(2):C272-9. PubMed PMID: 2161361).
After incubating in the presence of drugs for one hour, cells were washed three times with ice-cold PBS and lysed according to published methods (Kazgan N, Williams T, Forsberg L J, Brenman J E. Identification of a nuclear export signal in the catalytic subunit of AMP-activated protein kinase. Molecular biology of the cell. 2010 Oct. 1; 21(19):3433-42. PubMed PMID: 20685962. Pubmed Central PMCID: 2947478). Lysates were centrifuged at 16,000 g (10 minutes, 4° C.). Clarified supernatant (30 μL) was then transferred to 10 μL 4X loading buffer and 2 μL 1 M DTT. Samples were immediately frozen at −20° C. The concentration of protein in diluted clarified supernatant was calculated using a DC protein assay kit (BioRad) prior to western analyses.
as §5

[7] = system: p-AMPK levels in HEK cells; assay: Cell-intact assay, p-AMPK levels in HEK cells; format: cell-based, human; settings: serum starvation followed by 10% serum; 1 hour
Description: as §6
After incubating in the presence of drugs for one hour, cells were washed three times with ice-cold PBS and lysed according to published methods (Kazgan N, Williams T, Forsberg L J, Brenman J E. Identification of a nuclear export signal in the catalytic subunit of AMP-activated protein kinase. Molecular biology of the cell. 2010 Oct. 1; 21(19):3433-42. PubMed PMID: 20685962. Pubmed Central PMCID: 2947478). […] The concentration of protein in diluted clarified supernatant was calculated using a DC protein assay kit (BioRad) prior to western analyses. […]

[8] = system: HEK cells; assay: Cell-intact assay, attachment of HEK cells to tissue culture plates; format: cell-based, human; settings: absence of serum
Description: as §6

[9] = Example 4, read-out: binding IC50

T4 sequence (P54645 with tags, fused parts or gaps limits assumed): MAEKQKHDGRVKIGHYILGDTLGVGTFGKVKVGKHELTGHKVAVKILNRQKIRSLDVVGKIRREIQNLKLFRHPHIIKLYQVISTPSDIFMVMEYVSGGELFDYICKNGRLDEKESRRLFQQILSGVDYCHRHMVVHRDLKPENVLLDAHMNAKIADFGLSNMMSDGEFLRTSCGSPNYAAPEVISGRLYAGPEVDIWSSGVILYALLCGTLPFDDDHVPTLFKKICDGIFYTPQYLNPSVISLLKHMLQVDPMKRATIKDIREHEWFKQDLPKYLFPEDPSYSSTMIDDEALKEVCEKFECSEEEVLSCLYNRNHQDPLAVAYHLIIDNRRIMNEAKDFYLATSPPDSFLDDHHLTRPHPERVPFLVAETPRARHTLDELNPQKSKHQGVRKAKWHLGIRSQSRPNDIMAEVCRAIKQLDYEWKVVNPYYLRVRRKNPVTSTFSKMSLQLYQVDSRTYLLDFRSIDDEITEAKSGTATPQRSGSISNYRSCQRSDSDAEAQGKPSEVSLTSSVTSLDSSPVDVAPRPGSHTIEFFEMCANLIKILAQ
T4 sequence (P80386 whole entry partner): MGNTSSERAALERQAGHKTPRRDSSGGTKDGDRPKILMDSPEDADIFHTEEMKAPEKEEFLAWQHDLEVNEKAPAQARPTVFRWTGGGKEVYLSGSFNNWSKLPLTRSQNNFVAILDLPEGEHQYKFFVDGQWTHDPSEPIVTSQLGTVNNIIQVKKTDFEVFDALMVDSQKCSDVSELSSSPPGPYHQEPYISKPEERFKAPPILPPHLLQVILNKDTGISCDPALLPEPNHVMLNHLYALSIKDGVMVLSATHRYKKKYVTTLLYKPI
T4 sequence (P80385 whole entry): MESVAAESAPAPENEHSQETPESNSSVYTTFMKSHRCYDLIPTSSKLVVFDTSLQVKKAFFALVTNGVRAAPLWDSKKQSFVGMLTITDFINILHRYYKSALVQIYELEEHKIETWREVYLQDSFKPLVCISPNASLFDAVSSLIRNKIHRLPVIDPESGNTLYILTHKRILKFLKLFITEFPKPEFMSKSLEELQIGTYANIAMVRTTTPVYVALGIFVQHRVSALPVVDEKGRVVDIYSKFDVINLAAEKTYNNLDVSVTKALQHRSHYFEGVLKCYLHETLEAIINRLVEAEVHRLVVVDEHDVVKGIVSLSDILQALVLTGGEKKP
T1 sequence (P54645 with tags, fused parts or gaps limits assumed): as the sequence (P54645 with tags, fused parts or gaps limits assumed) above
T1 sequence (P80386 whole entry partner, the tested form may be a part): as the sequence (P80386 whole entry partner) above
T1 sequence (P80385 whole entry, the tested form may be a part): as the sequence (P80385 whole entry) above
T5 sequence (P54645 with tags, fused parts or gaps limits assumed): as the sequence (P54645 with tags, fused parts or gaps limits assumed) above
T5 sequence (P80386 whole entry partner): as the sequence (P80386 whole entry partner) above
T5 sequence (P80385 whole entry): as the sequence (P80385 whole entry) above
T2 sequence (P54645 407-559 partner limits assumed): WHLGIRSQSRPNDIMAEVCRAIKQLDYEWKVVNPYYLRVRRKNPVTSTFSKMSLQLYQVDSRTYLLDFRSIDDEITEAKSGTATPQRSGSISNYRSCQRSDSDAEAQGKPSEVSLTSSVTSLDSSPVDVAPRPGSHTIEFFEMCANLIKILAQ
T2 sequence (O43741 187-272 partner limits assumed): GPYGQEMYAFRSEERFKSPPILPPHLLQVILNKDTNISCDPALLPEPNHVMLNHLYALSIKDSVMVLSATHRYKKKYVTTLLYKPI
T2 sequence (P80385 whole entry, the tested form may be a part): as the sequence (P80385 whole entry) above
T3 sequence (P54645 with tags, fused parts or gaps limits assumed): as the sequence (P54645 with tags, fused parts or gaps limits assumed) above
T3 sequence (P80386 whole entry partner): as the sequence (P80386 whole entry partner) above
T3 sequence (P80385 whole entry): as the sequence (P80385 whole entry) above

SMILES	displacement of MANT-ADP: full-length AMPK compared with regulatory fragment [1]	IC50 ([1]; MANT-ADP with no protein = 100% inhibition, read-out: IC50, inhibition of the increase in MANT-ADP fluorescence)	IC50 [2]	Kd [3]	inhibition of the protein-bound signal of MANT-ADP in the triplicate similarity screen [1]	IC50 [1, 9]	activity of purified p-AMPK (phosphorylation of GST-ACC peptide), dose response ([4]; compared to DMSO control)	dose response when repeated with an additional concentration at 1 μM ([4]; high p-GST-ACC peptide at both 1 and 40 μM, data not shown)	substrate phosphorylation at higher doses ([4]; higher doses)	protection of p-AMPK from dephosphorylation [5]	p-ACC levels, serum-treated HEK cells ([6]; 10% serum)	p-ACC levels (substrate phosphorylation), pre-conditioned HEK cells [6]	p-AMPK levels, pre-conditioned HEK cells [7]	detachment of cells from tissue culture plates [8]
Nc1ncnc2c1ncn2[C@@H]1O[C@H](COP(=O)(O)OP(=O)(O)O)[C@@H](O)[C@H]1O [ADP, adenosine diphosphate, reference compound]	same binding IC50; also recorded: same concentration	300 nM	400 nM	13 µM	–	–	–	–	–	–	–	–	–	–
O=C1/C(=C/c2ccc(-c3ccc(Cl)c(Cl)c3)o2)SC(=S)N1CCS(=O)(=O)O [BAS 02250954, 2-[(5Z)-5-{[5-(3,4-Dichlorophenyl)furan-2-yl]methylidene}-4-oxo-2-sulfanylidene-1,3-thiazolidin-3-yl]ethane-1-sulfonic acid]	greater concentration	–	–	–	reproducibly inhibited	< 5000 nM	significantly inhibited substrate phosphorylation at low doses; also recorded: inhibits substrate phosphorylation	complete U-shaped dose response	permitted substrate phosphorylation	protected p-AMPK from dephosphorylation	decreased substrate phosphorylation	no change in substrate phosphorylation; also recorded: does not increase	high levels of p-AMPK	caused many cells to detach
CCCOC(=O)c1cc(-c2ccc(/C=C3\SC(=S)NC3=O)o2)ccc1Cl [BAS 03338548, Propyl 2-chloro-5-(5-{[(5Z)-4-oxo-2-sulfanylidene-1,3-thiazolidin-5-ylidene]methyl}furan-2-yl)benzoate]	–	–	–	–	reproducibly inhibited	< 5000 nM	–	–	–	failed to protect	–	–	–	–
N#Cc1c(O)c2c(-c3ccc(-c4ccccc4O)cc3)csc2[nH]c1=O [Example A-769662, reference compound]	–	–	–	–	–	–	–	–	–	–	–	increased	increased	–
